Experimental data as given in article PMC11640942, “The Role of Medium Polarity in the Efficiency of Albumin Binding with Hydrophobic Ligands: Experimental Studies and a Molecular Dynamics Investigation” (International Journal of Molecular Sciences, 2024).
Values after ≈ are worked out from the molar mass of the structure shown. Like-named read-outs stand apart in the source and are kept apart here. One block for each molecule: values may come before it.

Key:
[1] = cited from earlier work
[2] = biological target: T1, human serum albumin (HSA) (Homo sapiens, UniProt P02768); assay: Binding of quercetin or rutin with HSA by quenching of the protein's intrinsic fluorescence; settings: pure water vs 20% 1,4-dioxane, fit to Equation (3)
T1 construct: purchased Sigma-Aldrich Chemical Co. (St. Louis, MO, USA)
Experimental: The interactions between HSA and quercetin or rutin were evaluated by quenching the intrinsic fluorescence of the protein. The excitation was set at 295 nm, and the emission at 310 to 410 nm. […] After each addition of the ligands, the mixtures were incubated for 2 min before the fluorescence measurements. […] Since a 1:1 complex was assumed, n was set as 1. Therefore, Kd and Φ were treated as the fitting parameters in the non-linear least-squares analysis. Before determining the binding constants, the fluorescent intensities were corrected for the inner filter effect (Equation (4)) caused by the attenuation of the excitation and emission signals provoked by the light absorption of the flavonoids. Fcorr and Fobs are the corrected and observed fluorescence. Abex and Abem are the absorptions of the mixture at excitation and emission wavelength, respectively. The absorbance spectra were measured using a Perkin Elmer Lambda 35 UV-visible spectrophotometer (Shelton, CT, USA), and the fluorescence spectra were obtained using a Perkin Elmer LS 55 spectrofluorometer (Shelton, CT, USA). (3) Fratio=1-Φ[([…])/2nP0] (4) Fcorr=Fobs×10^Abex+Abem/2

[3] = cited from earlier work; remark: listed apart in the source
[4] = biological target: T1, human serum albumin (HSA); assay: Time-resolved fluorescence (average lifetime) of DPH, free and complexed with HSA
Experimental: The measurements were performed using a mini-tau filter-based fluorescence lifetime spectrometer coupled to a Time-Correlated Single Photon Counting (TCSPC) system (Edinburgh Instruments, Livingston, UK). The excitation was performed using a 370 ± 10 nm picosecond pulsed laser, and the emission was using a […] interference filter. The fluorescence decays were fitted using the multi-exponential decay model, Equation (5), and the average lifetime <τ> was calculated using Equation (6). The quality of the fit was assessed by χ^2 values and residuals. […] (5) IT=∑i=1nfie^−T/τi (6) <τ>=∑i=1nfiτi

[5] = biological target: T1, human serum albumin (HSA); assay: Binding constants of DPH and OG with HSA by increase in the probe's fluorescence (titration with HSA)
Experimental: The slit widths were set at 10 nm for both excitation and emission wavelengths, and a 3 mL quartz cuvette with a 10 mm path length and that was magnetically stirred was used during the measurements. The experiments were performed in pure water or solutions containing 1.0 mol L^−1 NaCl, 10 and 20% (w/w) of 1,4-dioxane. […] After each addition, the mixtures were incubated for 2 min before the fluorescence measurements. Equation (2) was applied to determine the binding constant. […] The association constant (Ka) was calculated as 1/Kd. The same experimental protocol was used to determine the binding constant with OG. In this case, the fixed amount of OG was 5.0 µmol L^−1 and HSA 0–25.0 µmol L^−1. The excitation was set at 305 nm, and the emission was 320 to 450 nm. The non-linear fitting was obtained using the GraphPad Prism version 8.00 for Windows (GraphPad Software, San Diego, CA, USA). (2) F−F0/F∞−F0=L+[P]+Kd−L+[P]+Kd)^2−4[L][P]/2[L]

[6] = 1,4-dioxane 0% (pure water), 25 °C, fit to Equation (2), read-out: association constant Ka (converted)
[7] = 1,4-dioxane 20% w/w, 25 °C, fit to Equation (2), read-out: association constant Ka (converted)

T1 sequence (P02768 25-609): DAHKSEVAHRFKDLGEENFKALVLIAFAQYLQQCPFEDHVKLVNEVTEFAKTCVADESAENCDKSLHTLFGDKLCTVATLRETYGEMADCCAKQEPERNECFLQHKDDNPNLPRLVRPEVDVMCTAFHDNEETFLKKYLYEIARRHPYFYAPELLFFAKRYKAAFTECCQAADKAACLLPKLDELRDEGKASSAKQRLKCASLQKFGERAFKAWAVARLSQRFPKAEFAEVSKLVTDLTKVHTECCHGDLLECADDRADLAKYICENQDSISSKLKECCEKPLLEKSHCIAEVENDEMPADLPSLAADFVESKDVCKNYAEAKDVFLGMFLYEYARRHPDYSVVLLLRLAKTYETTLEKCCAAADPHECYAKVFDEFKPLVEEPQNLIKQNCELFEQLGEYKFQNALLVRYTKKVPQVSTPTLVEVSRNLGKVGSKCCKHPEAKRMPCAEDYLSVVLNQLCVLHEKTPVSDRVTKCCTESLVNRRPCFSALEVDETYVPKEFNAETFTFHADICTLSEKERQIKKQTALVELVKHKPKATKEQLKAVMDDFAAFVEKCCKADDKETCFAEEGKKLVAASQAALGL

Compound: O=c1c(O)c(-c2ccc(O)c(O)c2)oc2cc(O)cc(O)c12 [quercetin]
- logP [1]: 0.35
- effect of 1,4-dioxane on binding strength [2]: decreased
- water solubility [3]: 60 µg/mL (≈ 199 µM)

- average fluorescence lifetime ([4]; 20% 1,4-dioxane with HSA added): 7.1 nanoseconds
- average fluorescence lifetime ([4]; 20% 1,4-dioxane, no protein): 2.6 nanoseconds
- average fluorescence lifetime ([4]; pure 1,4-dioxane): 7.8 nanoseconds
- Kd [5, 6]: 505 nM
- Kd ([5]; 1,4-dioxane 10% w/w, 25 °C, fit to Equation (2), read-out: association constant Ka (converted)): 1890 nM
- Kd [5, 7]: 5880 nM
- HSA concentration needed to reach saturation ([5]; 1,4-dioxane (20%)): 10 µM
- Kd ([5]; Figure 4, printed as (10%) 1,4-dioxane, read-out: Ka (means and SD of triplicates) (converted)): 2220 nM
- Kd ([5]; Figure 4, printed as (20%) 1,4-dioxane, read-out: Ka (means and SD of triplicates) (converted)): 485 nM
- Kd ([5]; NaCl 1.0 mol L^−1 (dielectric constant 69.3), read-out: binding constant Ka (converted)): 4350 nM
- lower HSA concentration at saturation when the solvent was absent ([5]; no solvent vs 1,4-dioxane): 5 fold
- HSA concentration needed to reach saturation ([5]; pure water): 2.0 µM
- Kd ([5]; pure water (dielectric constant 80.3), NaCl comparison experiment, read-out: binding constant Ka (converted)): 1010 nM
Compound: C(=CC=Cc1ccccc1)C=Cc1ccccc1 [DPH, 1,6-diphenyl-1,3,5-hexatriene]

Compound: CCCCCCCCOC(=O)c1cc(O)c(O)c(O)c1 [OG, octyl gallate]
- Kd [5, 6]: 192 nM
- Kd [5, 7]: 4550 nM
- increase of binding constant in pure water compared to 1,4-dioxane ([5]; pure water vs 20% 1,4-dioxane): 25 fold

Compound: C[C@@H]1O[C@@H](OC[C@H]2O[C@@H](Oc3c(-c4ccc(O)c(O)c4)oc4cc(O)cc(O)c4c3=O)[C@H](O)[C@@H](O)[C@@H]2O)[C@H](O)[C@H](O)[C@H]1O [rutin]
- logP [1]: −2.28
- effect of 1,4-dioxane on binding strength [2]: not
